# From patent US8354419B2, “Benzimidazole analogues for the treatment or prevention of flavivirus infections” (Vertex Pharmaceuticals Incorporated, priority 2009, dated 2013)
# Test system: HCV (Ib) RNA replication
# Assay: Cell-based luciferase reporter HCV (1b) RNA replication assay (replicon cell lines Huh-7 5.2 and ET)
# Set-up: species or system Hepatitis C virus
# Details: Hepatitis C virus, Huh-7, 96 h, HCV 1b genotype replicon, luciferase readout, 4 days incubation; read-out: EC50_1b
# Method in brief: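 Compounds were tested at eleven concentrations in duplicate over 4 days at 37 °C, 5% CO2. The cells were luciferase-reporter HCV 1b replicon lines 5.2 (NS5A adaptive mutation) or ET (NS4B mutation). Luminescence of lysates was measured, and IC50s were derived by nonlinear curve fitting.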
row,Structure (SMILES),EC50
1,CCN(C(=O)OC)[C@H](C(=O)N1C[C@@H](C)C[C@H]1c1nc2ccc(-c3ccc(-c4ccc5[nH]c([C@@H]6C[C@H](C)CN6C(=O)[C@@H](NC(=O)OC)C(C)C)nc5c4)cc3)cc2[nH]1)C(C)C [Compound 297],≤ 5 nM
2,COC(=O)N[C@H](C(=O)N1CC(C)(C)C[C@H]1c1nc2cc(-c3ccc(-c4ccc5[nH]c([C@@H]6CC(C)(C)CN6C(=O)[C@@H](NC(=O)OC)C(C)C)nc5c4)cc3)ccc2[nH]1)C(C)C [Compound 298],≤ 5 nM
3,COC(=O)N(C)[C@H](C(=O)N1C[C@@H](C)C[C@H]1c1nc2cc(-c3ccc(-c4ccc5[nH]c([C@@H]6C[C@H](C)CN6C(=O)[C@H](C(C)C)N(C)C(=O)OC)nc5c4)c4nsnc34)ccc2[nH]1)C(C)C [Compound 299],≤ 5 nM
4,COC(=O)N[C@H](C(=O)N1C(C)CC[C@H]1c1nc2cc(-c3ccc(-c4ccc5[nH]c([C@@H]6CCC(C)N6C(=O)[C@@H](NC(=O)OC)C(C)C)nc5c4)c(C)c3)ccc2[nH]1)C(C)C (stereo partly shown) [Compound 300],≤ 5 nM
5,COC(=O)N[C@H](C(=O)N1C(C)CC[C@H]1c1nc2cc(-c3ccc(-c4ccc5[nH]c([C@@H]6CCC(C)N6C(=O)[C@H](C(C)C)N(C)C(=O)OC)nc5c4)cc3)ccc2[nH]1)C(C)C (stereo partly shown) [Compound 301],≤ 5 nM
6,CC[C@H]1C[C@@H](c2nc3cc(-c4ccc(-c5ccc6[nH]c([C@@H]7C[C@H](CC)CN7C(=O)[C@@H](NC(C)OC)C(C)C)nc6c5)cc4)ccc3[nH]2)N(C(=O)[C@@H](NC(=O)OC)C(C)C)C1 (stereo partly shown) [Compound 302],≤ 5 nM
7,COC(=O)N[C@H](C(=O)N1C[C@@H](C)C[C@H]1c1nc2cc(-c3ccc(-c4ccc5[nH]c([C@@H]6C[C@H](C)CN6C(=O)[C@@H](NC(=O)OC)C(C)C)nc5c4)c4nsnc34)ccc2[nH]1)C(C)C [Compound 304],≤ 5 nM
8,COC(=O)N[C@H](C(=O)N1C[C@@H](C)C[C@H]1c1nc2cc(-c3ccc(-c4ccc5[nH]c([C@@H]6C[C@H](C)CN6C(=O)[C@H](C(C)C)N6CCOC6=O)nc5c4)cc3)ccc2[nH]1)C(C)C [Compound 305],≤ 5 nM
9,CC(C)[C@@H](C(=O)N1C[C@@H](C)C[C@H]1c1nc2cc(-c3ccc(-c4ccc5[nH]c([C@@H]6C[C@H](C)CN6C(=O)[C@H](C(C)C)N6CCOC6=O)nc5c4)cc3)ccc2[nH]1)N1CCOC1=O [Compound 306],≤ 5 nM
10,COC(=O)N[C@H](C(=O)N1C[C@@H](C)C[C@H]1c1nc2cc(-c3cnc(-c4ccc5[nH]c([C@@H]6C[C@H](C)CN6C(=O)[C@@H](NC(=O)OC)C(C)C)nc5c4)cn3)ccc2[nH]1)C(C)C [Compound 307],≤ 5 nM
11,COC(=O)N[C@H](C(=O)N1[C@H](C)CC[C@H]1c1nc2cc(-c3ccc(-c4ccc5[nH]c([C@@H]6CC[C@@H](C)N6C(=O)[C@@H](NC(=O)OC)C(C)C)nc5c4)cc3)ccc2[nH]1)C(C)C [Compound 310],≤ 5 nM
12,COC(=O)N[C@H](C(=O)N1[C@H](c2nc3cc(-c4ccc(-c5ccc6nc([C@@H]7CCC(C)(C)N7C(=O)[C@@H](NC(=O)OC)C(C)C)[nH]c6c5)cc4)ccc3[nH]2)CCC1(C)C)C(C)C [Compound 311],≤ 5 nM
13,COC(=O)N[C@H](C(=O)N1[C@H](C)CC[C@H]1c1nc2cc(-c3ccc(-c4ccc5[nH]c([C@@H]6CC[C@H](C)N6C(=O)[C@@H](NC(=O)OC)C(C)C)nc5c4)cc3)ccc2[nH]1)C(C)C [Compound 313],≤ 5 nM
14,COC(=O)N[C@H](C(=O)N1[C@@H](C)CC[C@H]1c1nc2cc(-c3cc(F)c(-c4ccc5[nH]c([C@@H]6CC[C@H](C)N6C(=O)[C@@H](NC(=O)OC)C(C)C)nc5c4)cc3F)ccc2[nH]1)C(C)C [Compound 314],≤ 5 nM
15,COC(=O)N[C@H](C(=O)N1C[C@@H](C(F)F)C[C@H]1c1nc2cc(-c3ccc(-c4ccc5[nH]c([C@@H]6C[C@H](C(F)F)CN6C(=O)[C@@H](NC(=O)OC)C(C)C)nc5c4)cc3)ccc2[nH]1)C(C)C [Compound 315],≤ 5 nM
16,COC(=O)N[C@H](C(=O)N1C[C@@H](C(F)(F)F)C[C@H]1c1nc2cc(-c3ccc(-c4ccc5[nH]c([C@@H]6C[C@H](C(F)(F)F)CN6C(=O)[C@@H](NC(=O)OC)C(C)C)nc5c4)cc3)ccc2[nH]1)C(C)C [Compound 316],≤ 5 nM
